Laboratory results published in patent US7288567B2, “Inhibitors of histone deacetylase” (Methylgene Inc., priority 2000, dated 2007).

Tests used:
[1] = test system: histone deacetylase enzyme in nuclear extracts from H446 cells (pooled HDACs); experiment: Histone deacetylase inhibition, H446 nuclear extracts (pooled HDACs); assay type: biochemical, human; settings: for IC50: H446 nuclear extract, [3H]-acetylated histone substrate; for pooled HDACs percent inhibition: percent inhibition at 20 μM (footnote)
Experimental: HDAC inhibitors were screened against histone deacetylase enzyme in nuclear extracts prepared from the human small cell lung cancer cell line H446 (ATTC HTB-171) and against a cloned recombinant human HDAC-1 enzyme expressed and purified from a Baculovirus insect cell expression system.
(§1) For deacetylase assays, 20,000 cpm of the [^3H]-metabolically labeled acetylated histone substrate (M. Yoshida et al., J. Biol. Chem. 265(28): 17174-17179 (1990)) was incubated with 30 μg of H446 nuclear extract or an equivalent amount of the cloned recombinant hHDAC-1 for 10 minutes at 37° C. The reaction was stopped by adding acetic acid (0.04 M, final concentration) and HCl (250 mM, final concentration). The mixture was extracted with ethyl acetate and the released [^3H]-acetic acid was quantified by scintillation counting. For inhibition studies, the enzyme was preincubated with compounds at 4° C. for 30 minutes prior to initiation of the enzymatic assay. IC50 values for HDAC enzyme inhibitors were determined by performing dose response curves with individual compounds and determining the concentration of inhibitor producing fifty percent of the maximal inhibition.

[2] = biological target: T1, recombinant human HDAC-1 enzyme (rHDAC-1) (Homo sapiens, UniProt Q13547); experiment: Histone deacetylase inhibition, recombinant human HDAC-1; assay type: biochemical; settings: cloned recombinant human HDAC-1, Baculovirus insect cell expression; read-out: rHDAC-1 IC50
T1 construct: made in house; host or cells: Baculovirus insect cell expression system
T1 sequence (Q13547 whole entry): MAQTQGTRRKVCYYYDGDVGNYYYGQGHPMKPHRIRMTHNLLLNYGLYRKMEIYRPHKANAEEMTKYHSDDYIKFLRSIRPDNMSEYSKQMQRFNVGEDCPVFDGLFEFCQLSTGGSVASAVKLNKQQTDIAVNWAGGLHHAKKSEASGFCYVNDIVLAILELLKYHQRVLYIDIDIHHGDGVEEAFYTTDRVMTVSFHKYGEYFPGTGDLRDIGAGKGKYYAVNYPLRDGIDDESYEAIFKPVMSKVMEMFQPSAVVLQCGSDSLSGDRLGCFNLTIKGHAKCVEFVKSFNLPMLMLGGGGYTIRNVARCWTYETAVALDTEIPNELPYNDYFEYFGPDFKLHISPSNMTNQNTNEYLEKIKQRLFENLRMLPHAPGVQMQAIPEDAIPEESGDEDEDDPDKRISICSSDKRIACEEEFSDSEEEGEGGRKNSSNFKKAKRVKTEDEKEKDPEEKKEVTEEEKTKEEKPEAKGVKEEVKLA
Experimental: as §1, with “The” for “For deacetylase assays, 20,000 cpm of the [^3H]-metabolically labeled acetylated histone substrate (M. Yoshida et al., J. Biol. Chem. 265(28): 17174-17179 (1990)) was incubated with 30 μg of H446 nuclear extract or an equivalent amount of the cloned recombinant hHDAC-1 for 10 minutes at 37° C. The”

IC50 [1] | IC50 [2] | SMILES | pooled HDACs percent inhibition [1] | pooled HDACs percent inhibition @ 1 μM ([1]; @ 1 μM)
40 nM | 30 nM | O=C(CCCCCCC(=NO)c1cc2ccccc2o1)NO (mixture of isomers) [Compound 98, N-Hydroxy-8-(E)-oximino-8-(2-benzofuryl)octanamide] |  | 
> 20000 nM | 4000 nM | Nc1ccccc1NC(=O)CCCCCCC(=NO)c1ccc2ccccc2c1 (mixture of isomers) [Compound 106, N-(2-Aminophenyl)-8-(E)-oximino-8-(2-naphthyl)octanamide] |  | 
 |  | O=C(CCCCCC/C(=N\O)c1ccc(-c2ccccc2)cc1)NO [(E)-51h, N-Hydroxy-8-(E)-oximino-8-(4-biphenyl)octanamide] | 99% | 
 |  | O=C(CCCCCC/C(=N/O)c1ccc(-c2ccccc2)cc1)NO [(Z)-51h, N-Hydroxy-8-(Z)-oximino-8-(4-biphenyl)octanamide] | 75% | 
3000 nM | 250 nM | COc1ccc(C(C/C=C/C=C/C(=O)NO)OC)cc1 (centres unmarked) [Compound 6, N-Hydroxy-7-methoxy-7-(4-methoxyphenyl)-2,4-heptadienamide] |  | 
9400 nM |  | COC(C/C=C/C=C/C(=O)NO)c1ccccc1 (centres unmarked) [Compound 12, N-Hydroxy-7-methoxy-7-phenyl-2,4-heptadienamide] |  | 
4000 nM | 250 nM | COC(C/C=C/C=C/C(=O)NO)c1ccc(N(C)C)cc1 (centres unmarked) [Compound 17, N-Hydroxy7-methoxy-7-[4-(N,N-dimethylamino)phenyl]-2,4-heptadienamide] |  | 
> 100000 nM | < 20000 nM | COC(C/C=C/C=C/C(=O)Nc1ccccc1N)c1ccccc1 (centres unmarked) [Compound 19, N-(2-Aminophenyl)-7-methoxy-7-phenyl-2,4-heptadienamide] |  | 
5000 nM | 1000 nM | COc1ccc(C(OC)C(C)(C)/C=C/C=C/C(=O)NO)cc1 (centres unmarked) [Compound 26, N-Hydroxy-6,6-dimethyl-7-methoxy-7-(4-methoxyphenyl)-2,4-heptadienamide] |  | 
> 100000 nM |  | COc1ccc(C(OC)C(C)(C)/C=C/C=C/C(=O)Nc2ccccc2N)cc1 (centres unmarked) [Compound 27, N-(2-Aminophenyl)-6,6-dimethyl-7-methoxy-7-(4-methoxyphenyl)-2,4-heptadienamide] |  | 
4000 nM | 100 nM | COc1ccc(C(OC)C(C)(C)CCCCC(=O)NO)cc1 (centres unmarked) [Compound 28, N-Hydroxy-6,6-dimethyl-7-methoxy-7-(4-methoxyphenyl)heptanamide] |  | 
> 10000 nM |  | COC(c1ccc(N(C)C)cc1)C(C)/C=C(C)/C=C/C(=O)NO (centres unmarked) [Compound 33, N-Hydroxy-4,6-dimethyl-7-methoxy-7-[4-(N,N-dimethylamino)phenyl]-2,4-heptadienamide] |  | 
> 20000 nM |  | CC(/C=C/C(=O)NO)=C\C(C)Cc1ccc(N(C)C)cc1 (centres unmarked) [Compound 38, N-Hydroxy-4,6-dimethyl-7-[4-(N,N-dimethylamino)phenyl]-2,4-heptadienamide] |  | 
4500 nM | 500 nM | O=C(CCCCCNS(=O)(=O)c1ccccc1)NO [Compound 47, N-Hydroxy-6-(benzenesulfonylamino)hexanamide] |  | 
350 nM | 100 nM | O=C(CCCCCCC(=NO)c1ccccc1)NO [Compound 51a, N-Hydroxy-8-oximino-8-phenyloctanamide] |  | 
900 nM | 100 nM | O=C(CCCCCCC(=NO)c1ccco1)NO [Compound 51i, N-Hydroxy-8-oximino-8-(2-furanyl)octanamide] |  | 
550 nM | 60 nM | O=C(CCCCCCC(=O)c1ccc(C(F)(F)F)cc1)NO [Compound 52c, N-hydroxy-7-(4-trifluoromethylbenzoyl)heptanamide] |  | 
50 nM |  | O=C(CCCCCCC(=O)c1ccc(Br)cc1)NO [Compound 52d, N-hydroxy-7-(4-bromobenzoyl)heptanamide] |  | 
550 nM | 10 nM | O=C(CCCCCCC(=O)c1cccc2ccccc12)NO [Compound 52f, N-hydroxy-7-(1-naphthoyl)heptanamide] |  | 
3000 nM | 100 nM | O=C(CCCCCCC(=O)c1ccco1)NO [Compound 52i, N-hydroxy-7-(2-furanoyl)-heptanamide] |  | 
3000 nM | 450 nM | O=C(CCCCCCC(=O)c1ccoc1)NO [Compound 52j, N-hydroxy-7-(3-furanoyl)heptanamide] |  | 
900 nM |  | O=C(CCCCCCC(=O)c1cccs1)NO [Compound 52k, N-hydroxy-7-(2-thiophene)carbonylheptanamide] |  | 

IC50 [1] | IC50 [2] | SMILES | pooled HDACs percent inhibition [1] | pooled HDACs percent inhibition @ 1 μM ([1]; @ 1 μM)
300 nM | 30 nM | O=C(CCCCCCC(=O)c1cc2ccccc2o1)NO [Compound 52l, N-hydroxy-7-(2-benzofuran)carbonylheptanamide] |  | 
100 nM | 10 nM | O=C(CCCCCCC(=O)c1cc2ccccc2s1)NO [Compound 52m, N-hydroxy-7-(2-benzothiophene)carbonylheptanamide] |  | 
 | 1000 nM | COc1ccc(C(=O)CCCCCCC(=O)Nc2ccccc2N)cc1 [Compound 53b, N-(2-Aminophenyl)-7-(p-anisoyl)heptanamide] | 0% | 
 | 2000 nM | Nc1ccccc1NC(=O)CCCCCCC(=O)c1cccc2ccccc12 [Compound 53f, N-(2-Aminophenyl)-7-(1-naphthoyl)heptanamide] | 3% | 
3000 nM | 250 nM | COc1ccc(C(=O)C(C)(C)CCCCC(=O)NO)cc1 [Compound 58, N-Hydroxy-6-methyl-6-(4-methoxybenzoyl)-heptanamide] |  | 
1100 nM |  | CC(CCC(=O)NO)CC(C)C(=O)c1ccc(N(C)C)cc1 (centres unmarked) [Compound 62, N-Hydroxy-4-Methyl-6-[4-(N,N-dimethylamino)benzoyl]heptanamide] |  | 
> 20000 nM | 2200 nM | Nc1ccccc1NC(=O)CCCCCCC(=O)c1ccc2ccccc2c1 [Compound 63, N-(2-Aminophenyl)-7-(2-naphthoyl)heptanamide] |  | 
 | 2300 nM | O=C(CCCCCCC(=O)c1ccc2ccccc2c1)Nc1ccccc1O [Compound 66, N-(2-Hydroxyphenyl)-7-(2-naphthoyl)heptanamide] | 0% | 
 | 7800 nM | O=C(CCCCCCC(=O)c1ccc(-c2ccccc2)cc1)Nc1ccccc1O [Compound 74, N-(2-Hydroxyphenyl)-7-[(4-biphenyl)carbonyl]heptanamide] | 0% | 
 | 8400 nM | Nc1ccccc1CNC(=O)CCCCCCC(=O)c1ccc(-c2ccccc2)cc1 [Compound 75, N-(2-Aminobenzyl)-7-[(4-biphenyl)carbonyl]heptanamide] | 0% | 
 | 25000 nM | COc1ccc(NC(=O)CCCCCCC(=O)c2ccc(-c3ccccc3)cc2)c(N)c1 [Compound 81, N-(4-(3-Amino)anisole)-7-[(4-biphenyl)carbonyl]heptanamide] | 27% | 
 | 16300 nM | Nc1ccccc1NC(=O)NCCCCCCC(=O)c1ccccc1 [Compound 89, N-(2-Aminophenyl)-N′-[6-(benzoyl)hexyl]urea] | 0% | 
 | 15900 nM | Nc1ccccc1NC(=O)NCCCCCC(=O)c1ccc(-c2ccccc2)cc1 [Compound 92, N-(2-Aminophenyl)-N′-[5-((4biphenyl)carbonyl)pentyl]urea] | 0% | 
 | 6400 nM | O=C(NCCCCCC(=O)c1ccc(-c2ccccc2)cc1)Nc1ccccc1O [Compound 93, N-(2-Hydroxyphenyl)-N′-[5-((4-biphenyl)carbonyl)pentyl]urea] | 0% | 
100 nM | 35 nM | COc1ccc(/C(CCCCCCC(=O)NO)=N/O)cc1 [Compound 96, N-Hydroxy-8-(E)-oximino-8-(4-methoxyphenyl)octanamide] |  | 
30 nM |  | O=C(CCCCCC/C(=N\O)c1ccc2ccccc2c1)NO [Compound 97, N-Hydroxy-8-(E)-oximino-8-(2-naphthyl)octanamide] |  | 
48 nM |  | O=C(CCCCCCC(=O)c1ccc(N2CCCCC2)cc1)NO [Compound 138h, N-Hydroxy-7-[4-(1-piperidinyl)benzoyl]heptanamide] |  | 
 |  | O=C(CCCCCCC(=O)c1ccccn1)NO [Compound 141a2, N-Hydroxy-7-[(2-pyridyl)carbonyl]heptanamide] |  | 12%@ 1 μM
2500 nM |  | CC(CCCCCC(=O)c1ccc2ccccc2c1)C(=O)NO (centres unmarked) [Compound 175, N-Hydroxy-2-methyl-7-(2-naphthoyl)heptanamide] |  | 
 |  | Nc1ccccc1NC(=O)CCCCCn1cnc2ccccc2c1=O [Compound 239a, N-(2-Aminophenyl)-6-[3-(4-oxo-4H-quinazolinyl)]hexanamide] | 0% | 
 |  | Nc1ccccc1NC(=O)CCCCCN1C(=O)c2cccc3cc(O)cc(c23)C1=O [Compound 251a, N-(2-Aminophenyl)-6-[2-(5-hydroxy-1,3-dioxo-1H,3H-benzo[de]isoquinolinyl)]hexanamide] | 0% | 
